{
  "source": "patent US20230304031A1",
  "about": "“VECTORS AND METHODS FOR IN VIVO TRANSDUCTION” (Abintus Bio, Inc., priority 2020, published 2023)",
  "origin": "cited, not measured here",
  "key": {"HSPC [1]": {"system": "HSPC", "details": "cited from earlier work; for G-CSF-induced HSPC mobilization with NSAID: blocking of PGE2 production; for HSPC mobilization (in words): as reported in the cited literature"}, "[2]": {"target": "phosphodiesterase type 5 (PDE5) (Homo sapiens, UniProt O76074)", "details": "after oral administration; cited from earlier work"}, "VLA-4": {"system": "VLA-4", "details": "after SCF stimulation; cited from earlier work"}, "VLA-5": {"system": "VLA-5", "details": "after SCF stimulation; cited from earlier work"}, "CD34+ cells / HSPC": {"system": "CD34+ cells / HSPC", "details": "cited from earlier work; for median yield of CD34+ cells: 5 µg/kg/day after chemotherapy, relapsed Hodgkin's disease; for increase in the harvest of CFU-GM over baseline: 5 µg/kg/day alone for 4 days; for CD34+ HSPC counts in the blood: 24 hours post-injection"}, "HSPC [3]": {"system": "HSPC", "details": "mice / murine models; cited from earlier work"}, "HSCs": {"system": "HSCs", "details": "cited from earlier work"}, "[4]": {"details": "10 breast cancer patients, 0.84 ± 0.1 µg/kg/day"}},
  "note": "Counter-ions that a name gives are not always drawn. Like-named read-outs stand apart in the source and are kept apart here.",
  "data": [
    {"molecule": "CC(C)Cc1ccc(C(C)C(=O)O)cc1", "note": "(centres unmarked) [ibuprofen]", "values": [
      {"measurement": "G-CSF-induced HSPC mobilization with NSAID", "setting": "HSPC [1]", "result": "doubled"}
    ]},
    {"molecule": "CCCc1nn(C)c2c(=O)[nH]c(-c3cc(S(=O)(=O)N4CCN(C)CC4)ccc3OCC)nc12", "note": "[Sildenafil citrate]", "values": [
      {"measurement": "time of peak activity", "setting": "[2]", "result": 2, "unit": "h"}
    ]},
    {"molecule": "CC(=O)Oc1ccccc1C(=O)O", "note": "[aspirin]", "values": [
      {"measurement": "G-CSF-induced HSPC mobilization with NSAID", "setting": "HSPC [1]", "result": "doubled"}
    ]},
    {"molecule": "CC(=O)N[C@@H](CS)C(=O)O", "note": "[NAC, N-acetyl-L-cysteine]", "values": [
      {"measurement": "HSPC mobilization (in words)", "setting": "HSPC [1]", "result": "significantly abrogate UDP-glc-induced HSPC mobilization"}
    ]},
    {"molecule": "C[C@@H](NCCCc1cccc(C(F)(F)F)c1)c1cccc2ccccc12", "note": "[Cinacalcet]", "values": [
      {"measurement": "HSPC adhesion, migration and homing", "setting": "HSPC [1]; pharmacological activation of CaR", "result": "increased adhesion of HSPCs to collagen I and fibronectin"}
    ]},
    {"molecule": "SCF: Stem Cell Factor", "values": [
      {"measurement": "increase of VLA-4 expression on CD34+ HSPC", "setting": "VLA-4", "result": "approximately 2 fold"},
      {"measurement": "increase of VLA-5 expression on CD34+ HSPC", "setting": "VLA-5", "result": "4- to 10 fold"}
    ]},
    {"molecule": "O=C(O)[C@H](Cc1ccc(OC(=O)N2CCCC2)cc1)NC(=O)[C@@H]1CCCN1S(=O)(=O)c1ccccc1", "note": "[BOP, N-(benzenesulfonyl)-L-prolyl-L-O-(1-pyrrolidinylcarbonyl)tyrosine]", "values": [
      {"measurement": "HSPC mobilization (in words)", "setting": "HSPC [1]", "result": "rapidly mobilizes long-term multi-lineage reconstituting HSPC"}
    ]},
    {"molecule": "Natalizumab: humanized monoclonal anti-VLA-4 antibody [reference compound]", "values": [
      {"measurement": "increase in circulating CD34+ cells", "setting": "CD34+ cells / HSPC; patients receiving infusion therapy for multiple sclerosis", "result": "approximately 3 fold"}
    ]},
    {"molecule": "CCCCCCCCc1ccc(CCC(N)(CO)CO)cc1", "note": "[FTY720]", "values": [
      {"measurement": "HSPC mobilization (in words)", "setting": "HSPC [1]", "result": "decreases steady-state mobilization of HSPCs"}
    ]},
    {"molecule": "O=P1(N(CCCl)CCCl)NCCCO1", "note": "(centres unmarked) [cyclophosphamide, reference compound]", "values": [
      {"measurement": "CD34+ cell yields", "setting": "CD34+ cells / HSPC; doses of 4-7 g/m2", "result": "~3.62 × 10^6 cells/kg"},
      {"measurement": "increase in the number of CFU-GM", "setting": "CD34+ cells / HSPC; single dose of 4 g/m^2", "result": "up to 25 fold"}
    ]},
    {"molecule": "vedolizumab: humanized monoclonal antibody against the α4β7 integrin", "values": [
      {"measurement": "HSPC mobilization (in words)", "setting": "HSPC [3]", "result": "Reduction in plasma CXCL12 levels, accompanied by reduced HSPC egress"}
    ]},
    {"molecule": "GM-CSF: granulocyte-macrophage colony stimulating factor [reference compound]", "values": [
      {"measurement": "median yield of CD34+ cells", "setting": "CD34+ cells / HSPC", "result": "5.6 × 10^6 CD34+ cells/kg"},
      {"measurement": "increase in the harvest of CFU-GM over baseline", "setting": "CD34+ cells / HSPC", "result": 33.7, "unit": "fold"},
      {"measurement": "CFU-GM content of mobilized HSPC populations", "setting": "CD34+ cells / HSPC; 250 µg/m2 versus 125 µg/m2", "result": "superior yield"},
      {"measurement": "increased HSPC in the peripheral blood", "setting": "CD34+ cells / HSPC; 4-64 µg/kg/day continuous intravenous infusion up to 7 days, cancer patients", "result": "4- to 18 fold"}
    ]},
    {"molecule": "CCOCc1cc(OC)c(-c2ccc(C[C@H](NC(=O)c3c(F)cccc3F)C(=O)O)cc2)c(OC)c1", "note": "[Firategrast]", "values": [
      {"measurement": "HSPC mobilization (in words)", "setting": "HSPC [1]", "result": "disrupt HSPC retention in the postnatal hematopoietic niche"}
    ]},
    {"molecule": "c1cc(CN2CCCNCCNCCCNCC2)ccc1CN1CCCNCCNCCCNCC1", "note": "[AMD3100, reference compound]", "values": [
      {"measurement": "HSPC mobilization (in words)", "setting": "HSPC [1]", "result": "rapidly mobilize HSPCs in various animal models"},
      {"measurement": "CD34+ HSPC counts in the blood", "setting": "CD34+ cells / HSPC; subcutaneous 240 µg/kg", "result": "approximately 10 cells/µL"},
      {"measurement": "peak CD34+ HSPC counts in the blood", "setting": "CD34+ cells / HSPC; subcutaneous 240 µg/kg", "result": "approximately 25 cells/µL"},
      {"measurement": "time to peak CD34+ HSPC counts", "setting": "CD34+ cells / HSPC; subcutaneous 240 µg/kg", "result": "8 to 10", "unit": "h"},
      {"measurement": "CD34+ HSPC counts in the blood", "setting": "CD34+ cells / HSPC; subcutaneous 480 µg/kg", "result": "approximately 20 cells/µL"},
      {"measurement": "peak CD34+ HSPC counts in the blood", "setting": "CD34+ cells / HSPC; subcutaneous 480 µg/kg", "result": "approximately 30 cells/µL"},
      {"measurement": "time to peak CD34+ HSPC counts", "setting": "CD34+ cells / HSPC; subcutaneous 480 µg/kg", "result": "8 to 10", "unit": "h"}
    ]},
    {"molecule": "COc1ccc2c(c1)c(CC(=O)O)c(C)n2C(=O)c1ccc(Cl)cc1", "note": "[indomethacin]", "values": [
      {"measurement": "G-CSF-induced HSPC mobilization with NSAID", "setting": "HSPC [1]", "result": "doubled"}
    ]},
    {"molecule": "G-CSF: hematopoietic growth factor (protein, UniProt P09919 31-207, looked up) Granulocyte …: TPLGPASSLPQSFLLKCLEQVRKIQGDGAALQEKLVSECATYKLCHPEELVLLGHSLGIPWAPLSSCPSQALQLAGCLSQLHSGLFLYQGLLQALEGISPELGPTLDTLQLDVADFATTIWQQMEELGMAPALQPTQGAMPAFASAFQRRAGGVLVASHLQSFLEVSYRVLRHLAQP", "values": [
      {"measurement": "median yield of CD34+ cells", "setting": "CD34+ cells / HSPC", "result": "7.6 × 10^6 CD34+ cells/kg"},
      {"measurement": "increase in the harvest of CFU-GM over baseline", "setting": "CD34+ cells / HSPC", "result": 35.6, "unit": "fold"},
      {"measurement": "increase in CD34+ content of peripheral blood over baseline", "setting": "CD34+ cells / HSPC; 5 µg/kg/day", "result": "sevenfold"},
      {"measurement": "median harvest", "setting": "CD34+ cells / HSPC; 10 µg/kg/day, 34 patients with Hodgkin's disease or NHL", "result": "2.8 × 10^6 CD34+ cells/kg"},
      {"measurement": "CD34+ HSPC yield", "setting": "CD34+ cells / HSPC; 10 µg/kg/day", "result": "11.32 × 10^7 /kg cells"},
      {"measurement": "increase in CD34+ content of peripheral blood over baseline", "setting": "CD34+ cells / HSPC; 10 µg/kg/day", "result": 28, "unit": "fold"},
      {"measurement": "mean total harvested", "setting": "CD34+ cells / HSPC; 12 µg/kg/day for 6 days, 17 patients with non-myeloid malignant disorders", "result": "33 × 10^4 CFU-GM/kg"},
      {"measurement": "CD34+ HSPC yield", "setting": "CD34+ cells / HSPC; 24 µg/kg/day", "result": "48.25 × 10^7 /kg cells"},
      {"measurement": "mean yield after the first leukapheresis", "setting": "CD34+ cells / HSPC; [4]", "result": "0.77 × 10^6 CD34+ cells/kg"},
      {"measurement": "mean yield after the second leukapheresis", "setting": "CD34+ cells / HSPC; [4]", "result": "1.42 × 10^6 CD34+ cells/kg"},
      {"measurement": "increase in HSPC over baseline", "setting": "CD34+ cells / HSPC; G-CSF 5 µg/kg/day for a further 5 days after 7 days of GM-CSF 5 µg/kg/day", "result": 80, "unit": "fold"},
      {"measurement": "mobilized PBPC cells expressing CD38", "setting": "CD34+ cells / HSPC; by mobilization regimen", "result": 88, "unit": "%"},
      {"measurement": "mean harvest yield", "setting": "CD34+ cells / HSPC; healthy subjects, G-CSF 5 plus GM-CSF 5 µg/kg/day versus G-CSF 10 µg/kg/day alone", "result": "119 × 10^6 CD34+ cells/kg"},
      {"measurement": "numbers of HSCs in the bloodstream", "setting": "HSCs; 1 day after 4 consecutive days of injections", "result": "3,400 HSCs/mouse"},
      {"measurement": "HSC mobilization (comparison in words)", "setting": "HSCs; regimens as worded", "result": "not significantly better than the 2-h Viagra + AMD3100 mobilization protocol"}
    ]}
  ]
}
